From the supplement of paper PMC8671470
Counter-ions that a name gives are not always drawn.

Each compound was assayed on HL-60 (assay: area under dose-response curve (viability, 1 nM-10 uM) (fraction (0-1)); higher = more sensitive). Details: 72 h; co-treatment: AZD3965 100 nM.
How it was run: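 A rescreen of the full library used HL-60 cells in RPMI 1640 with 10% FBS on 384-well plates, run in duplicate at five tenfold concentrations (1–10,000 nM). Each screen included DMSO or 100 nM of one of three metabolic inhibitors and ran 72 h at 37 °C, 5% CO2. CellTiter-Glo viability was scaled between DMSO and 10 μM proteasome-inhibitor wells. Any area under the curve comes from four-parameter log-logistic fits with drc and PharmacoGx.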

Row | Compound | area under dose-response curve
1 | CN(CCCOc1ccc(Cc2ccccc2)cc1)CCC(=O)O | < 0.0301
2 | COc1ccc2c(NC(=O)Nc3cccc(C(F)(F)F)n3)ccnc2c1 | < 0.0301
3 | Cc1nc(-c2ccccc2)sc1C(=O)Nc1ccc(S(N)(=O)=O)cc1 | < 0.0301
4 | C=CC(=O)c1ccc(O)cc1 [4-Acryloylphenol] | < 0.0301
5 | O=c1cc(-c2ccccc2)oc2c1ccc1ccccc12 [Alpha-Naphtoflavone] | < 0.0301
6 | Cc1c(Cl)cccc1S(=O)(=O)Nc1nc(CC(=O)N2CCN(C)CC2)cs1 [BVT-2733] | < 0.0301
7 | CCc1oc2ccccc2c1C(=O)c1cc(Br)c(O)c(Br)c1 [Benzbromarone] | < 0.0301
8 | CCOC(=O)c1sc(NC(=O)c2ccco2)c(SC#N)c1C [CBR-5884] | < 0.0301
9 | CCCCCOC(=O)Nc1nc(=O)n([C@@H]2O[C@H](C)[C@@H](O)[C@H]2O)cc1F [Capecitabine] | < 0.0301
10 | Cc1ccc(-c2cc(C(F)(F)F)nn2-c2ccc(S(N)(=O)=O)cc2)cc1 [Celecoxib] | < 0.0301
11 | O=c1c(-c2ccc(O)cc2)coc2cc(O[C@@H]3O[C@H](CO)[C@@H](O)[C@H](O)[C@H]3O)ccc12 [Daidzin] | < 0.0301
12 | C[C@H]1c2cccc(O)c2C(=O)C2C(=O)[C@]3(O)C(=O)C(C(N)=O)C(=O)[C@@H](N(C)C)[C@@H]3[C@@H](O)[C@@H]21 (stereo not given in full) [Doxycycline] | < 0.0301
13 | OC[C@H]1NC[C@H](O)[C@@H](O)[C@@H]1O [Duvoglustat] | < 0.0301
14 | O=C(NCCN1CCC(n2c(O)nc3ccccc32)CC1)c1cc2cc(F)ccc2[nH]1 [FIPI] | < 0.0301
15 | CCN(CCO)CCCC(C)Nc1ccnc2cc(Cl)ccc12 (stereo not given) [Hydroxychloroquine sulfate] | < 0.0301
16 | O=C([O-])CC(O)(C(=O)[O-])C(O)C(=O)[O-].[K+].[K+].[K+] (stereo not given) [Hydroxycitrate] | < 0.0301
17 | CCCCCN(C)CCC(O)(P(=O)(O)O)P(=O)(O)O [Ibandronate] | < 0.0301
18 | Cc1cc(C(=O)NNCc2ccccc2)no1 [Isocarboxazid] | < 0.0301
19 | CCn1c(=Cc2cccc[n+]2CC)sc(=C2Sc3ccccc3N2C)c1=O [MKT 077] | < 0.0301
20 | COC(=O)c1cc2c(C(F)(F)F)cc(-c3ccccc3)cc2n1O [NHI-2] | < 0.0301
21 | CCCCCCCC/C=C\CCCCCCCC(=O)Nc1ccccc1 [Octadec-9-Enoic Acid Phenylamide] | < 0.0301
22 | CC[C@H](C)[C@H](N)C(=O)N1CCSC1 [P32/98] | < 0.0301
23 | OC[C@H]1O[C@@H](n2cnc3c2N=CNC[C@H]3O)C[C@@H]1O [Pentostatin] | < 0.0301
24 | CC(C)CC(=O)N[C@H](C(=O)N[C@H](C(=O)N[C@@H](CC(C)C)[C@@H](O)CC(=O)N[C@@H](C)C(=O)N[C@@H](CC(C)C)[C@@H](O)CC(=O)O)C(C)C)C(C)C [Pepstatin A] | < 0.0301
25 | Cc1cccc(Nc2cc(Cl)nc(SCC(=O)O)n2)c1C [Pirinixic acid] | < 0.0301
26 | C[C@]12C=CC(=O)C=C1CC[C@@H]1[C@@H]2[C@@H](O)C[C@@]2(C)[C@H]1CC[C@]2(O)C(=O)CO [Prednisolone] | < 0.0301
27 | N[C@@H](CC(=O)N1CCn2c(nnc2C(F)(F)F)C1)Cc1cc(F)c(F)cc1F [Sitagliptin] | < 0.0301
28 | N#C/C(=C\c1ccc(O)cc1)C(=O)O [alpha-cyano-4-hydroxycinnamic acid] | < 0.0301

Same assay, conditions: 72 h; co-treatment: DMSO vehicle

Row | Compound | area under dose-response curve
29 | CN(CCCOc1ccc(Cc2ccccc2)cc1)CCC(=O)O | < 0.0301
30 | COc1ccc2c(NC(=O)Nc3cccc(C(F)(F)F)n3)ccnc2c1 | < 0.0301
31 | Cc1nc(-c2ccccc2)sc1C(=O)Nc1ccc(S(N)(=O)=O)cc1 | < 0.0301
32 | C=CC(=O)c1ccc(O)cc1 [4-Acryloylphenol] | < 0.0301
33 | O=c1cc(-c2ccccc2)oc2c1ccc1ccccc12 [Alpha-Naphtoflavone] | < 0.0301
34 | Cc1c(Cl)cccc1S(=O)(=O)Nc1nc(CC(=O)N2CCN(C)CC2)cs1 [BVT-2733] | < 0.0301
35 | CCc1oc2ccccc2c1C(=O)c1cc(Br)c(O)c(Br)c1 [Benzbromarone] | < 0.0301
36 | CCOC(=O)c1sc(NC(=O)c2ccco2)c(SC#N)c1C [CBR-5884] | < 0.0301
37 | CCCCCOC(=O)Nc1nc(=O)n([C@@H]2O[C@H](C)[C@@H](O)[C@H]2O)cc1F [Capecitabine] | < 0.0301
38 | Cc1ccc(-c2cc(C(F)(F)F)nn2-c2ccc(S(N)(=O)=O)cc2)cc1 [Celecoxib] | < 0.0301
39 | O=c1c(-c2ccc(O)cc2)coc2cc(O[C@@H]3O[C@H](CO)[C@@H](O)[C@H](O)[C@H]3O)ccc12 [Daidzin] | < 0.0301
40 | C[C@H]1c2cccc(O)c2C(=O)C2C(=O)[C@]3(O)C(=O)C(C(N)=O)C(=O)[C@@H](N(C)C)[C@@H]3[C@@H](O)[C@@H]21 (stereo not given in full) [Doxycycline] | < 0.0301
41 | OC[C@H]1NC[C@H](O)[C@@H](O)[C@@H]1O [Duvoglustat] | < 0.0301
42 | O=C(NCCN1CCC(n2c(O)nc3ccccc32)CC1)c1cc2cc(F)ccc2[nH]1 [FIPI] | < 0.0301
43 | CCN(CCO)CCCC(C)Nc1ccnc2cc(Cl)ccc12 (stereo not given) [Hydroxychloroquine sulfate] | < 0.0301
44 | O=C([O-])CC(O)(C(=O)[O-])C(O)C(=O)[O-].[K+].[K+].[K+] (stereo not given) [Hydroxycitrate] | < 0.0301
45 | CCCCCN(C)CCC(O)(P(=O)(O)O)P(=O)(O)O [Ibandronate] | < 0.0301
46 | Cc1cc(C(=O)NNCc2ccccc2)no1 [Isocarboxazid] | < 0.0301
47 | CCn1c(=Cc2cccc[n+]2CC)sc(=C2Sc3ccccc3N2C)c1=O [MKT 077] | < 0.0301
48 | COC(=O)c1cc2c(C(F)(F)F)cc(-c3ccccc3)cc2n1O [NHI-2] | < 0.0301
49 | CCCCCCCC/C=C\CCCCCCCC(=O)Nc1ccccc1 [Octadec-9-Enoic Acid Phenylamide] | < 0.0301
50 | CC[C@H](C)[C@H](N)C(=O)N1CCSC1 [P32/98] | < 0.0301
51 | OC[C@H]1O[C@@H](n2cnc3c2N=CNC[C@H]3O)C[C@@H]1O [Pentostatin] | < 0.0301
52 | CC(C)CC(=O)N[C@H](C(=O)N[C@H](C(=O)N[C@@H](CC(C)C)[C@@H](O)CC(=O)N[C@@H](C)C(=O)N[C@@H](CC(C)C)[C@@H](O)CC(=O)O)C(C)C)C(C)C [Pepstatin A] | < 0.0301
53 | Cc1cccc(Nc2cc(Cl)nc(SCC(=O)O)n2)c1C [Pirinixic acid] | < 0.0301
54 | C[C@]12C=CC(=O)C=C1CC[C@@H]1[C@@H]2[C@@H](O)C[C@@]2(C)[C@H]1CC[C@]2(O)C(=O)CO [Prednisolone] | < 0.0301
55 | N[C@@H](CC(=O)N1CCn2c(nnc2C(F)(F)F)C1)Cc1cc(F)c(F)cc1F [Sitagliptin] | < 0.0301
56 | N#C/C(=C\c1ccc(O)cc1)C(=O)O [alpha-cyano-4-hydroxycinnamic acid] | < 0.0301

Same assay, conditions: 72 h; co-treatment: GSK2194069 100 nM

Row | Compound | area under dose-response curve
57 | CN(CCCOc1ccc(Cc2ccccc2)cc1)CCC(=O)O | < 0.0301
58 | COc1ccc2c(NC(=O)Nc3cccc(C(F)(F)F)n3)ccnc2c1 | < 0.0301
59 | Cc1nc(-c2ccccc2)sc1C(=O)Nc1ccc(S(N)(=O)=O)cc1 | < 0.0301
60 | C=CC(=O)c1ccc(O)cc1 [4-Acryloylphenol] | < 0.0301
61 | O=c1cc(-c2ccccc2)oc2c1ccc1ccccc12 [Alpha-Naphtoflavone] | < 0.0301
62 | Cc1c(Cl)cccc1S(=O)(=O)Nc1nc(CC(=O)N2CCN(C)CC2)cs1 [BVT-2733] | < 0.0301
63 | CCc1oc2ccccc2c1C(=O)c1cc(Br)c(O)c(Br)c1 [Benzbromarone] | < 0.0301
64 | CCOC(=O)c1sc(NC(=O)c2ccco2)c(SC#N)c1C [CBR-5884] | < 0.0301
65 | CCCCCOC(=O)Nc1nc(=O)n([C@@H]2O[C@H](C)[C@@H](O)[C@H]2O)cc1F [Capecitabine] | < 0.0301
66 | Cc1ccc(-c2cc(C(F)(F)F)nn2-c2ccc(S(N)(=O)=O)cc2)cc1 [Celecoxib] | < 0.0301
67 | O=c1c(-c2ccc(O)cc2)coc2cc(O[C@@H]3O[C@H](CO)[C@@H](O)[C@H](O)[C@H]3O)ccc12 [Daidzin] | < 0.0301
68 | C[C@H]1c2cccc(O)c2C(=O)C2C(=O)[C@]3(O)C(=O)C(C(N)=O)C(=O)[C@@H](N(C)C)[C@@H]3[C@@H](O)[C@@H]21 (stereo not given in full) [Doxycycline] | < 0.0301
69 | OC[C@H]1NC[C@H](O)[C@@H](O)[C@@H]1O [Duvoglustat] | < 0.0301
70 | O=C(NCCN1CCC(n2c(O)nc3ccccc32)CC1)c1cc2cc(F)ccc2[nH]1 [FIPI] | < 0.0301
71 | CCN(CCO)CCCC(C)Nc1ccnc2cc(Cl)ccc12 (stereo not given) [Hydroxychloroquine sulfate] | < 0.0301
72 | O=C([O-])CC(O)(C(=O)[O-])C(O)C(=O)[O-].[K+].[K+].[K+] (stereo not given) [Hydroxycitrate] | < 0.0301
73 | CCCCCN(C)CCC(O)(P(=O)(O)O)P(=O)(O)O [Ibandronate] | < 0.0301
74 | Cc1cc(C(=O)NNCc2ccccc2)no1 [Isocarboxazid] | < 0.0301
75 | COC(=O)c1cc2c(C(F)(F)F)cc(-c3ccccc3)cc2n1O [NHI-2] | < 0.0301
